Data on 14 compounds can be found in patent US10526337B2, “Heteroaryl derivative or pharmaceutically acceptable salt thereof, preparation method therefor, and pharmaceutical composition for preventing or treating diseases associated with PI3 kinases, containing same as active ingredient” (KOREA RESEARCH INSTITUTE OF CHEMICAL TECHNOLOGY, priority 2015, dated 2020).

Some results are limits rather than exact numbers.

Holding throughout (details): ATP=10 uM, sample concentration=100 nM
Test [1] deals with T1, PI3 Kinase (p110α/p85α) (h) (Homo sapiens, UniProt P42336).
T1 construct: endogenous in cells; host or cells: MDA-MB-453
In words: Inhibition of phosphatidylinositol 3-kinase alpha (PI3K α), pAkt Western blotting in EGF-stimulated MDA-MB-453 cells. Format: cell-based. Here is the method: The inhibition of phosphatidylinositol 3 kinase alpha (PI3K α) by those compounds prepared in Examples 1˜98 was investigated by the following experiment. The inhibition activity of each compound was measured in the following conditions: ATP=10 uM, and sample concentration=100 nM.
Human breast cancer cells (MDA-MB-453) cultured in DMEM (Dulbecco's Modified Eagle Medium, Hyclon, SH30243.01) supplemented with 10% fetal bovine serum (Hyclon, USA) were distributed in a 12-well plate at the density of 1,000,000 cells/well. The cells were stabilized in a 37° C. CO2 for 24 hours and then treated with each compound for 1 and half hours. The cells were treated with 10 ng/mL of EGF (Epidermal Growth Factor, 10 μg/mL; R&D, 2150-C5) to increase the intracellular activity of PI3K alpha. 5 minutes later, the medium was discarded and the cells were washed with cold PBS (phosphate buffered saline, Gibco, 14190-250). PBS was then eliminated completely by using a pipette. Western blotting was performed as described in step 2 to evaluate the intracellular PI3K alpha activity.
(§1) The stimulated cells were transferred in a 1.5 mL tube, followed by centrifugation at 3000 rpm for 1 minute. 100 μL of RIPA buffer (radioimmunoprecipitation assay buffer, 50 mM Tris-HCl, 5 mM EDTA, 150 mM NaCl, 1% NP-40, 1 mM PMSF, pH 8.0; ELPIS, Korea) was added thereto, which was stored in a 4° C. refrigerator for 12 hours. Centrifugation was performed at 4° C. at 14,000 rpm for 20 minutes. The supernatant was transferred into a new 1.5 mL tube. Protein was quantified by BCA (bicinchoninic acid) method and samples were prepared. The composition of the sample was as follows: sample buffer (ELPIS, EBA-1052) 5×, protein 10 μg, and 1× sample buffer to make the total volume 20 μL. The sample was heated at 100° C. for 5 minutes. The evaporated water vapor was condensed in a refrigerator. The liquid stained on the wall was fallen down by centrifugation for a few seconds. The sample proceeded to 10% SDS (Sodium Dodecyl Sulfate) acrylamide gel for separation. The separated protein was transferred onto PVDF (poly-vinyl difluoride) membrane, followed by reaction with pAkt (phospho protein kinase B) antibody (Ser473 or Thr308; Cell signaling, 9271s or 13038s) for 12 hours at 4° C. The membrane was washed with TBST (Tris-Buffered Saline with Tween 20, 10 mM Tris-HCl, pH 7.5, 150 mM NaCl, 0.1% Tween-20) three times for 5 minutes each, to which the secondary antibody (rabbit antibody, Santacruz, sc-2004) was added, followed by reaction at room temperature for 2 hours. The membrane was washed with TBST three times for 10 minutes each, to which ECL (enhanced chemiluminescence, Thermo, NCI34095KR) was sprayed. Bands were investigated by using LAS-3000.
A general note: Immunoblotting shows a protein as a band on a membrane.

Test [2] addresses T2, PI3 Kinase (p110δ/p85α) (h) (Homo sapiens, UniProt O00329).
T2 construct: endogenous in cells; host or cells: Raji
In words: Inhibition of phosphatidylinositol 3-kinase delta (PI3K δ), pAkt Western blotting in IgM-stimulated Raji cells. Format: cell-based. An outline of the steps: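 Raji cells were treated with compound for 1.5 h, then stimulated with 0.25 μg/mL IgM for 30 min to activate PI3Kδ. Lysates were Western blotted for pAkt (Ser473 or Thr308) with ECL detection. Conditions stated: ATP=10 uM, sample concentration=100 nM.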

The target in test [3] is T3, PI3 Kinase (p110β/p86α) (h) (Homo sapiens, UniProt P42338).
T3 construct: endogenous in cells; host or cells: PC3
In words: Inhibition of phosphatidylinositol 3-kinase beta (PI3K β), pAkt Western blotting in LPA-stimulated PC3 cells. In kind it is cell-based. As for the experimental part:
as §1
The inhibition of phosphatidylinositol 3 kinase beta (PI3K β) by those compounds prepared in Examples 1˜98 was investigated by the following experiment. The inhibition activity of each compound was measured in the following conditions: ATP=10 uM, and sample concentration=100 nM.
Human prostate cancer cells (PC3 cells) cultured in DMEM (Dulbecco's Modified Eagle Medium, Hyclon, SH30243.01) supplemented with 10% fetal bovine serum (Hyclon, USA) were distributed in a 12-well plate at the density of 1,000,000 cells/well. The cells were stabilized in a 37° C. CO2 for 24 hours and then treated with each compound for 1 and half hours. The cells were treated with 10 ng/mL of LPA (lysophosphatidic acid, 10 μg/mL; R&D, 2150-05) to increase the intracellular activity of PI3K beta. 5 minutes later, the medium was discarded and the cells were washed with cold PBS (phosphate buffered saline, Gibco, 14190-250). PBS was then eliminated completely by using a pipette. Western blotting was performed according to the same manner as described in step 2 of Experimental Example 1 to evaluate the intracellular PI3K beta activity.

The target of another test is T4, PI3 Kinase (p120γ) (h) (Homo sapiens, UniProt P48736).
T4 construct: endogenous in cells; host or cells: RAW264.7
In words: Inhibition of phosphatidylinositol 3-kinase gamma (PI3K γ), pAkt Western blotting in C5a-stimulated RAW264.7 macrophages. Format: cell-based, mouse. An outline of the steps: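 Enzyme: PI3Kγ activity measured at ATP=10 uM with compound at 100 nM. Cellular: RAW264.7 macrophages treated with compound 1.5 h, then stimulated with 10 ng/mL C5a for 5 min; lysates (10 μg protein) probed by Western blot for pAkt (Ser473 or Thr308), ECL detection.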

T2 sequence (O00329 whole entry): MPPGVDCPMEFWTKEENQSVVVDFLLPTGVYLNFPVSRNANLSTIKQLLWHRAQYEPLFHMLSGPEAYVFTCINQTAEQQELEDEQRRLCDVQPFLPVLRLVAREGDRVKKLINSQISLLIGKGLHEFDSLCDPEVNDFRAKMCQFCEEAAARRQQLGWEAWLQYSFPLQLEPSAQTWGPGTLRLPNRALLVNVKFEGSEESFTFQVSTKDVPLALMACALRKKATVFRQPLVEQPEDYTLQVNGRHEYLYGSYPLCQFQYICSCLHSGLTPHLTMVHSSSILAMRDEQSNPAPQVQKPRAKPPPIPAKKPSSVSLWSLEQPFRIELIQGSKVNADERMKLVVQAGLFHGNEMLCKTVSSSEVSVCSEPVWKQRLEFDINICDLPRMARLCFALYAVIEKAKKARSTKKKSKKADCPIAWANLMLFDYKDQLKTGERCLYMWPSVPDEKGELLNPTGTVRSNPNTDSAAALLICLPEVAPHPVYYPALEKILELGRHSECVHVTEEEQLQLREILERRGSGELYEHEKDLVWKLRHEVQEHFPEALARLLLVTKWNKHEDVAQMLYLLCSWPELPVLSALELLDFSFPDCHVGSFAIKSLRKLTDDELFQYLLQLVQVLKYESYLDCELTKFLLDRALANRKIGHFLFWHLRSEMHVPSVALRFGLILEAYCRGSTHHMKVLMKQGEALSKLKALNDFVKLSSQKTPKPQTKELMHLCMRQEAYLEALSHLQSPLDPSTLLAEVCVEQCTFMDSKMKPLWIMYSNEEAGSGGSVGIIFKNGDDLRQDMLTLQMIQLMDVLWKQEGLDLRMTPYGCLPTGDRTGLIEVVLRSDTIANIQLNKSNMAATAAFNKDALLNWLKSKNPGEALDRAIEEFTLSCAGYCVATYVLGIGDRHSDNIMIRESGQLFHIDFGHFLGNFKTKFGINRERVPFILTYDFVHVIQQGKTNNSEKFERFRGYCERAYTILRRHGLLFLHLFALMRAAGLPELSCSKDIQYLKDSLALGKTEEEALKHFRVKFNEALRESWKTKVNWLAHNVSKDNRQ
T2 sequence (P27986 whole entry partner): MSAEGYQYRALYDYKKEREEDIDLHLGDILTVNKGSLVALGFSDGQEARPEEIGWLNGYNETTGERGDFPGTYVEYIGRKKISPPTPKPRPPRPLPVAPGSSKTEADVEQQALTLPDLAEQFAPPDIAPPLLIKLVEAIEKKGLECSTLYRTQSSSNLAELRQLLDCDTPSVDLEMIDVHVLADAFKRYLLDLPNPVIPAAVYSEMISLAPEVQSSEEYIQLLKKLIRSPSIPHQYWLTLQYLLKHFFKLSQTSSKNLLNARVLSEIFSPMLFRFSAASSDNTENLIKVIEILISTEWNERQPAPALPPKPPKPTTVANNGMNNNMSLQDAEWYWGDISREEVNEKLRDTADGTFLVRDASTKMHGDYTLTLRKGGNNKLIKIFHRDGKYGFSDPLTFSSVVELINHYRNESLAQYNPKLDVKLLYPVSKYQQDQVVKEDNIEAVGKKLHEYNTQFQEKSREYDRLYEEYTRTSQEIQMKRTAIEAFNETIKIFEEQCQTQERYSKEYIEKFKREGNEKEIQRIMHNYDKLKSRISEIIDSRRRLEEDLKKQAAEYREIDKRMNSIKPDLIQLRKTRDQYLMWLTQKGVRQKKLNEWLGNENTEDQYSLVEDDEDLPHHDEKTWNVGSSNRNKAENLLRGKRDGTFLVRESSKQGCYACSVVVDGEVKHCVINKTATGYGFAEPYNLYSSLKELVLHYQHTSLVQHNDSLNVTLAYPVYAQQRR
T1 sequence (P42336 whole entry): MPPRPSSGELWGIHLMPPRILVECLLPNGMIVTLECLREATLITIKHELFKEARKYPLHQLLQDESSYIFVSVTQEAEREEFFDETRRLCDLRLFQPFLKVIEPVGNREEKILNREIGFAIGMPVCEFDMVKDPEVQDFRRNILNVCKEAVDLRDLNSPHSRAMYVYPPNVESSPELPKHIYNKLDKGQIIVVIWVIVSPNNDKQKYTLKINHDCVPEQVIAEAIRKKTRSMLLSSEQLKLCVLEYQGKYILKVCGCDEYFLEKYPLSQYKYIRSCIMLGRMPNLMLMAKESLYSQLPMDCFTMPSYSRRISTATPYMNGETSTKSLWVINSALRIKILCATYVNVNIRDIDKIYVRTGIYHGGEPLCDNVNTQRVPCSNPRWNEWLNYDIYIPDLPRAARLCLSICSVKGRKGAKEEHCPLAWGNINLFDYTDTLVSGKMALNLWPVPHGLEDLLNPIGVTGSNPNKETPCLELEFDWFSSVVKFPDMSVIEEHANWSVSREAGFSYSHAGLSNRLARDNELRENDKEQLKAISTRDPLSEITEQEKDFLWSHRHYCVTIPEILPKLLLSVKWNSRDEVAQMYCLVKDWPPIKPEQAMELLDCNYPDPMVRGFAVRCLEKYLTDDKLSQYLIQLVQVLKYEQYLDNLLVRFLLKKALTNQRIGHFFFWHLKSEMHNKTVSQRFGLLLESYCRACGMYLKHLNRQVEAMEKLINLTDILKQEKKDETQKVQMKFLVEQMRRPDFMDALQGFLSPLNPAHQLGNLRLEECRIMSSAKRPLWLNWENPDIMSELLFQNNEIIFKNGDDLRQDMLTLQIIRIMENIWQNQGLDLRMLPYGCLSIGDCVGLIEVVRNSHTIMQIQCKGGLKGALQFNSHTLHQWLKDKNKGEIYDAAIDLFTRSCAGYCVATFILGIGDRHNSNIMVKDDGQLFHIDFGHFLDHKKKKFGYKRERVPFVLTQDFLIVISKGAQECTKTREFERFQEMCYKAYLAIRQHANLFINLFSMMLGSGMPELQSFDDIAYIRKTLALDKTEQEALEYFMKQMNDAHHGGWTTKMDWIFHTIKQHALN
T1 sequence (P27986 2-724 partner limits assumed): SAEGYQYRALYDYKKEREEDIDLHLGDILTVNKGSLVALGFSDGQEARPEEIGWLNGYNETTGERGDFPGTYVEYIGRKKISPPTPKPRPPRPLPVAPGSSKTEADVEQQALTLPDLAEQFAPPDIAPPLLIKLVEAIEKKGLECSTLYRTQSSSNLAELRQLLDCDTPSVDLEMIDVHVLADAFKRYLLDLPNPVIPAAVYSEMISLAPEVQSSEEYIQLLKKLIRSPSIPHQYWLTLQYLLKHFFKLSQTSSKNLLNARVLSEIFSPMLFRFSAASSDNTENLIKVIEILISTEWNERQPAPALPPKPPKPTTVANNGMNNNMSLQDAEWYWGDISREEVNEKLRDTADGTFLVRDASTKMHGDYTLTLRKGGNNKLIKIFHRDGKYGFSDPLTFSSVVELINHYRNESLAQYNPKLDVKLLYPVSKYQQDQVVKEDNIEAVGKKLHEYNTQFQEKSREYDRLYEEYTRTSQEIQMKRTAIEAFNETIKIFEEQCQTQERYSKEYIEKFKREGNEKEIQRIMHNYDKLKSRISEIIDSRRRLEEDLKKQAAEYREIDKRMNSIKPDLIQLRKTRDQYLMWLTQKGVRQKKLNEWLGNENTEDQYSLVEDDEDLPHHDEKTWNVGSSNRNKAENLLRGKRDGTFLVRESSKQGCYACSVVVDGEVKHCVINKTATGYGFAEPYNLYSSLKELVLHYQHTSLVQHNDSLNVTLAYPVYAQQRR
T3 sequence (P42338 whole entry): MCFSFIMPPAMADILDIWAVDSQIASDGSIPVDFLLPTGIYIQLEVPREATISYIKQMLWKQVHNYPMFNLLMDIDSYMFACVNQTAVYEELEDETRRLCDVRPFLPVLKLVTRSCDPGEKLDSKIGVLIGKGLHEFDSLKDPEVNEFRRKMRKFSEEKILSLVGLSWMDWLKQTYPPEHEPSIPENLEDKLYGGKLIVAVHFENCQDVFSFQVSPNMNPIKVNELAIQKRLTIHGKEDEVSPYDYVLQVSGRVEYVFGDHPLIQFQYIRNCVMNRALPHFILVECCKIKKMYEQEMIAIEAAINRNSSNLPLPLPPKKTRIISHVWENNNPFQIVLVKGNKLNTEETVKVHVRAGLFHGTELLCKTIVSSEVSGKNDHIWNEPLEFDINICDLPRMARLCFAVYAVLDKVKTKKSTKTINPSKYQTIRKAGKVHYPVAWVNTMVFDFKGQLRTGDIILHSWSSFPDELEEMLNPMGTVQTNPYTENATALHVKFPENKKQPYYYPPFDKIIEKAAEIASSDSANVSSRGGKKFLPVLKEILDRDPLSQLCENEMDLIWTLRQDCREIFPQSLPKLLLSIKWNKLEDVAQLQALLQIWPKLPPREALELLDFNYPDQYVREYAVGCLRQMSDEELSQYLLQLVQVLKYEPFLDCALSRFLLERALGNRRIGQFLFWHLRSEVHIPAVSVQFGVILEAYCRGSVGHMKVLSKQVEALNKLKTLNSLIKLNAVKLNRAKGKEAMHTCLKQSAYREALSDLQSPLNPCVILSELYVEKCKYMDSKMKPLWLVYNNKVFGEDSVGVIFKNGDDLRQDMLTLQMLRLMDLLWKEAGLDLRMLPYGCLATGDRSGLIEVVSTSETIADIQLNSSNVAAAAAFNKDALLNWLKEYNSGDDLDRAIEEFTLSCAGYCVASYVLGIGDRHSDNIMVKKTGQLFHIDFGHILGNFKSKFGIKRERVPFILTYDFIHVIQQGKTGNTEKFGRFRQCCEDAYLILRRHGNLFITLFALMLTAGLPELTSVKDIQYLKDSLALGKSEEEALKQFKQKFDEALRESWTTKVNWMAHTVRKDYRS
T3 sequence (P27986 whole entry partner): as the sequence (P27986 whole entry partner) above

In general, IC50 refers to the concentration that inhibits the measured activity by half. Read a low IC50 as inhibition by little substance. In the case of `C[C@H](Nc1ncnc2[nH]ccc(=O)c12)c1nc2cccc(Cl)c2c(=O)n1-c1cc(F)cc(F)c1` [Example 4, (S)-4-((1-(5-chloro-3-(3,5-difluorophenyl)-4-oxo-3,4-dihydroquinazoline-2-yl)ethyl)amino)pyrido[2,3-d]pyrimidine-5(8H)-one], the half-inhibitory concentration (IC50) was over 500 nM in test [1], under 10 nM in test [2], over 500 nM in test [3] and 10 to 500 nM at PI3 Kinase (p120γ) (h).
On to `Nc1nc(N2CCC[C@H]2c2nn3ccc(Cl)c3c(=O)n2-c2ccccc2)c2c(=O)nc[nH]c2n1` [Example 95, (S)-7-amino-5-(2-(5-chloro-4-oxo-3-phenyl-3,4-dihydropyrrolo[2,1-f][1,2,4]triazine-2-yl)pyrrolidine-1-yl)pyrimido[4,5-d]pyrimidine-4(1H)-one], for which the IC50 was over 500 nM in test [1], 10 to 500 nM in test [2], over 500 nM in test [3] and 10 to 500 nM at PI3 Kinase (p120γ) (h).
On to `C[C@H](Nc1ncnc2[nH]ccc(=O)c12)c1c(F)c2cccc(Cl)c2c(=O)n1-c1ccccc1` [Example 11, (S)-4-((1-(8-chloro-4-fluoro-1-oxo-2-phenyl-1,2-dihydroisoquinoline-3-yl)ethyl)amino)pyrido[2,3-d]pyrimidine-5(8H)-one], for which the IC50 in test [1] was over 500 nM; in test [2], under 10 nM; in test [3], over 500 nM; at PI3 Kinase (p120γ) (h) it was 10 to 500 nM.
As to `C[C@H](Nc1ncnc2[nH]cc(C#N)c(=O)c12)c1cc2cccc(Cl)c2c(=O)n1-c1ccccc1` [Example 19, (S)-4-((1-(8-chloro-1-oxo-2-phenyl-1,2-dihydroisoquinoline-3-yl)ethyl)amino)-5-oxo-5,8-dihydropyrido[2,3-d]pyrimidine-6-carbonitrile], the IC50 (in test [1]; in test [2]; in test [3]; against PI3 Kinase (p120γ) (h)) was over 500 nM in each case.
Take `C[C@H](Nc1ncnc2[nH]ccc(=O)c12)c1nc2ccc(F)cc2c(=O)n1-c1cccnc1` [Example 28, (S)-4-((1-(6-fluoro-4-oxo-3-(pyridine-3-yl)-3,4-dihydroquinazoline-2-yl)ethyl)amino)pyrido[2,3-d]pyrimidine-5(8H)-one]: the IC50 in test [1] was over 500 nM; in test [2] it was 10 to 500 nM; in test [3], over 500 nM; against PI3 Kinase (p120γ) (h), over 500 nM.
For the compound `C[C@H](Nc1ncnc2c1C(=O)N(C1CC1)CN2)c1cc2cccc(Cl)c2c(=O)n1-c1ccccc1` [Example 62, (S)-5-(1-(8-chloro-1-oxo-2-phenyl-1,2-dihydroisoquinoline-3-yl)ethylamino)-3-cyclopropyl-2,3-dihydropyrimido[4,5-d]pyrimidine-4(1H)-one], the IC50 (in test [1]; in test [2]; in test [3]; against PI3 Kinase (p120γ) (h)) was over 500 nM in each case.
In the case of `C[C@H](Nc1ncnc2c1C(=O)N(C)CN2)c1cc2cccc(Cl)c2c(=O)n1-c1ccccc1` [Example 38, (S)-5-((1-(8-chloro-1-oxo-2-phenyl-1,2-dihydroisoquinoline-3-yl)ethyl)amino)-3-methyl-2,3-dihydropyrimido[4,5-d]pyrimidine-4(1H)-one], the IC50 in test [1] was 10 to 500 nM; in test [2], under 10 nM; in test [3], over 500 nM; at PI3 Kinase (p120γ) (h), under 10 nM.
For `O=c1cc[nH]c2ncnc(N3CCC[C@H]3c3nc4cccc(Cl)c4c(=O)n3-c3ccccc3)c12` [Example 13, (S)-4-(2-(5-chloro-4-oxo-3-phenyl-3,4-dihydroquinazoline-2-yl)pyrrolidine-1-yl)pyrido[2,3-d]pyrimidine-5(8H)-one], the IC50 was over 500 nM in test [1], under 10 nM in test [2], over 500 nM in test [3] and 10 to 500 nM on PI3 Kinase (p120γ) (h).
Turning to `C[C@H](Nc1ncnc2[nH]ccc(=O)c12)c1nc2cccc(Cl)c2c(=O)n1Cc1ccccc1Cl` [Example 31, (S)-4-((1-(5-chloro-3-(2-chlorobenzyl)-4-oxo-3,4-dihydroquinazoline-2-yl)ethyl)amino)pyrido[2,3-d]pyrimidine-5(8H)-one], the IC50 is over 500 nM in test [1], 10 to 500 nM in test [2], over 500 nM in test [3] and over 500 nM on PI3 Kinase (p120γ) (h).
For `C[C@H](Nc1ncnc2[nH]cc(Cl)c(=O)c12)c1nc2cccc(Cl)c2c(=O)n1-c1ccccc1` [Example 22, (S)-6-chloro-4-((1-(5-chloro-4-oxo-3-phenyl-3,4-dihydroquinazoline-2-yl)ethyl)amino)pyrido[2,3-d]pyrimidine-5(8H)-one], the IC50 is over 500 nM in test [1], under 10 nM in test [2], over 500 nM in test [3] and 10 to 500 nM against PI3 Kinase (p120γ) (h).
In the case of `C[C@H](Nc1ncnc2[nH]cc(Cl)c(=O)c12)c1cc2cccc(Cl)c2c(=O)n1-c1ccccc1` [Example 23, (S)-6-chloro-4-((1-(8-chloro-1-oxo-2-phenyl-1,2-dihydroisoquinoline-3-yl)ethyl)amino)pyrido[2,3-d]pyrimidine-5(8H)-one], the IC50 is over 500 nM in test [1], under 10 nM in test [2], over 500 nM in test [3] and 10 to 500 nM at PI3 Kinase (p120γ) (h).
Take `C[C@H](Nc1ncnc2[nH]ccc(=O)c12)c1cc2ccc(F)cc2nc1-c1ccccn1` [Example 9, (S)-4-(1-(7-fluoro-2-(pyridine-2-yl)quinoline-3-yl)ethylamino)pyrido[2,3-d]pyrimidine-5(8H)-one]: the IC50 was over 500 nM in test [1], under 10 nM in test [2], over 500 nM in test [3] and 10 to 500 nM on PI3 Kinase (p120γ) (h).
In the case of `C[C@H](Nc1ncnc2[nH]ccc(=O)c12)c1nc2cccc(Cl)c2c(=O)n1-c1cccnc1` [Example 2, (S)-4-((1-(5-chloro-4-oxo-3-(pyridine-3-yl)-3,4-dihydroquinazoline-2-yl)ethyl)amino)pyrido[2,3-d]pyrimidine-5(8H)-one], the IC50 is over 500 nM in test [1], under 10 nM in test [2], over 500 nM in test [3] and 10 to 500 nM on PI3 Kinase (p120γ) (h).
As for `C[C@H](Nc1ncnc2[nH]cc(Cl)c(=O)c12)c1c(Cl)c2cccc(Cl)c2c(=O)n1-c1ccccc1` [Example 24, (S)-6-chloro-4-((1-(4,8-dichloro-1-oxo-2-phenyl-1,2-dihydroisoquinoline-3-yl)ethyl)amino)pyrido[2,3-d]pyrimidine-5(8H)-one], the IC50 in test [1] is over 500 nM; in test [2] it was 10 to 500 nM; in test [3], over 500 nM; against PI3 Kinase (p120γ) (h), 10 to 500 nM.
